{"source": "patent US20040219201A1", "about": "“Tempamine compositions and methods of use” (priority 2001, published 2004)", "key": {"[1]": {"assay_type": "in vivo", "conditions": "free tempamine 1.8 mg/kg, four hours after injection, healthy and arthritic rats", "procedure": "Studies using the AA model are described in Example 6. In this study, AA was induced in male rats by injection of microbacteria in Freund's ajuvavnt. Liposomes containing tempanine were prepared as described in Example 5A by remote loading tempamine against an ammonium sulfate gradient. The liposomes were administered by injection to healthy and arthritic rats 22 days after inducement of AA. At regular time intervals after administration of the liposomes, plasma and tissue samples were taken to determine the biodistribution and pharmacokinetics.\nAdjuvent arthritis (AA) was induced by a single intradermal injection of mycobacteria in mineral oil (Freund's adjuvant). In strains of rats susceptible to adjuvant arthritis, the non-specific primary inflamnmation at the injection site was followed on about the 10th post-injection day by a disseminated polyarthritis or secondary specific inflammation. Lewis strain rats, which are highly susceptible to AA, were injected with 1 mg of Mycobacterium tuberculosis H37Ra (Difco, Detroit, Mich., USA) in Freund's complete adjuvant (FCA) (Difco), subcutaneously at the base of the tail. Maximum swelling of the paw occurred between 20 and 27 days\nAdjuvent (maximum swelling). Tempamine was administered at a dose of 1.8 mg tempamine/kg (10.5 μmol/kg). The phospholipid concentration of the injected liposomes was 42 mg/kg (56 μmol/kg). […]"}, "[2]": {"assay": "n-octanol/water partition coefficient (Kp)", "assay_type": "physicochemical", "conditions": "ammonium sulfate 0 mM; TMN 20 μmole"}, "[3]": {"assay": "Percent encapsulation of tempamine in liposomes (EPR)", "assay_type": "physicochemical", "conditions": "0.2 mM TMN", "procedure": "The amount of tempamine encapsulated in the liposomes was determined using EPR, as described in Example 3.\nEPR spectrometry was employed to detect tempamine concentration using a JES-RE3X EPR spectrometer (JEOL Co., Japan) (Fuchs, J., et al., Free Radic. Biol. Med. 22:967-976, (1997)). Samples were drawn by a syringe into a gas-permeable Teflon capillary tube of 0.81 mm i.d. and 0.05 mm wall thickness (Zeus Industrial Products, Raritan, N.J., USA). The capillary tube was inserted into a 2.5-mm-i.d. quartz tube open at both ends, and placed in the EPR cavity. EPR spectra were recorded with center field set at 329 mT, 100 kHz modulation frequency, 0.1 mT modulation amplitude, and nonsaturating microwave power. […]\nThe amount of entrapped tempamine of liposomes prepared according to Example 2 was determined by the following procedure. First, the total tempamine in the post-loading liposome preparation (TMNmix) was measured. Then, the amount of tempamine in the post-loading liposome preparation in the presence of potassium ferricyanide, an EPR broadening agent that eliminates the signal of free (non-liposomal) tempamine, was measured. […] Then the total temparifine after releasing it from liposomes by nigericin (TMNnigencia) was measured. […]\nThe percent encapsulation and the quenching factor were calculated as follows: […]"}, "[4]": {"assay": "Lipid bilayer/aqueous phase distribution (dialysis membrane)", "assay_type": "physicochemical", "conditions": "no ammonium sulfate gradient", "procedure": "In another study, the partition of tempamine between the lipid bilayer and the aqueous phase was determined. The lipid bilayer/aqueous phase distribution was performed using a dialysis membrane separating the phases in 0.15 M NaCl (Samuni, A., et al., Free Radic Biol Med., 22:1165 (1997)). There was no predisposition of tempamine for the lipid bilayer over the 0.15 M NaCl aqueous phase and the distribution of tempamine was equal between the liposome preparation (10% egg phosphatidylcholine (EPC) (w/v)) and 0.15 M NaCl (data not shown)."}, "[5]": {"test_system": "MCF-7 cancer cells", "assay": "Apoptosis detection by merocyanine-540 staining and flow cytometry", "assay_type": "cell-based, human", "conditions": "MCF-7, 1 mM tempamine, 24 hours; 14% without treatment", "source_text": "In another study, the MCF-7 cell line was used to investigate the mechanism of growth inhibition by tempamine. Untreated cells and tempamine-treated cells (24-hours exposure) were contacted with merocyanine-540. Merocyanine-540 binds selectively to phophatidylserine, which appears at the external surface of the cell at the beginning of apoptosis and is therefore one of the apoptotic markers (Reid, S., et al., J. lmmnol. Methods 192:43 (1996)). After interaction with merocyanine-540, cells were analyzed by flow cytometry as described in the methods section below. […] After the 24 hour treatment period, the cells were trypsinized, stained with merocyanine-540 and analyzed by flow cytometry. […]\nApoptosis was assessed by flow cytometry (FACScan). 1×10^6 cells were removed from culture, washed with PBS, and stained with merocyanine-540 (Reid, S., et al., J. Immunol. Methods 192:43 (1996). Briefly, the cell pellet was resuspended in 500 μl PBS. 2.5 μl of a 1 mg/ml solution of merocyanine-540 was added to the cells, incubated for 2 min at room temperature in the dark. The cells were washed, resuspended in 1 ml PBS, and run immediately on a fluorescence-activated cell-sorting flow cytometer (Vantage, Becton Dickinson, Rutherford, N.J., USA)."}}, "data": [{"smiles": "CC1(C)CC(N)CC(C)(C)N1[O]", "note": "[tempamine, 2,2,6,6-tetramethylpiperidine-4-amino-1-oxyl]", "values": [{"measurement": "amount of tempamine in plasma and in the tested tissues (detection limit)", "setting": "[1]", "value": "< 0.5", "unit": "µM"}, {"measurement": "n-octanol/aqueous phase (Kp), pH 4", "setting": "[2]", "value": 0.111}, {"measurement": "n-octanol/aqueous phase (Kp), pH 10.6", "setting": "[2]", "value": 2.331}, {"measurement": "% Encapsulation ± S.D.", "setting": "[3]; liposomes with NH4+ gradient", "value": "84.1 ± 8.4^3%"}, {"measurement": "% Encapsulation ± S.D.", "setting": "[3]; liposomes without NH4+ gradient", "value": "6 ± 0.6", "unit": "%"}, {"measurement": "distribution between liposome preparation (10% EPC w/v) and 0.15 M NaCl", "setting": "[4]", "value": "equal"}, {"measurement": "fluorescently labeled (apoptotic) cells", "setting": "[5]", "value": 77, "unit": "%"}]}]}
